Test results reported in patent EP3074389B1, “QUINOLINE DERIVATIVES AS BROMODOMAIN INHIBITORS” (Gilead Sciences, Inc., priority 2013, dated 2015).

Key:
[1] = target: BRD4 domain 2 (Homo sapiens, UniProt O60885); experiment: Kd determination of inhibitors binding to BRD4 domain 2 (Epic label-free platform); settings: direct binding to immobilized BRD4 domain 2; tripling dilution series from 20µM; about 1hr equilibrium; rounded to whole number
Method in brief: (§1)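 Label-free resonant waveguide (Epic) direct binding to BRD4 domain 1 or domain 2 amine-coupled via EDC/Sulfo-NHS at 150 µg/mL in 20 mM HEPES pH 7. Binding response taken as wavelength shift (pm) between baseline and second read; Kd from fit to a single-site binding isotherm.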

[2] = target: BRD4 domain 1 (Homo sapiens, UniProt O60885); experiment: Kd determination of inhibitors binding to BRD4 domain 1 (Epic label-free platform); settings: direct binding to immobilized BRD4 domain 1; tripling dilution series from 20µM; about 1hr equilibrium; rounded to whole number; read-out: Epic Kd BRD41
Method in brief: as §1

Kd [1] [µM]	Kd [2] [µM]	SMILES
0.473	0.705	Cc1noc(C)c1-c1cc(S(=O)(=O)NC2CCCC2)c2cc(NCCOCCO)c(=O)[nH]c2c1 [Compound 91, N-cyclopentyl-7-(3,5-dimethylisoxazol-4-yl)-3-((2-(2-hydroxyethoxy)ethyl)amino)-2-oxo-1,2-dihydroquinoline-5-sulfonamide]
0.569	0.743	Cc1noc(C)c1-c1cc(S(=O)(=O)NC2CCCC2)c2cc(NCCCN)c(=O)[nH]c2c1 [Compound 94, 3-((3-aminopropyl)amino)-N-cyclopentyl-7-(3,5-dimethylisoxazol-4-yl)-2-oxo-1,2-dihydroquinoline-5-sulfonamide]
0.503	0.798	Cc1noc(C)c1-c1cc(S(=O)(=O)NC2CCCC2)c2cc(NCCCN(C)C)c(=O)[nH]c2c1 [Compound 95, N-cyclopentyl-3-((3-(dimethylamino)propyl)amino)-7-(3,5-dimethylisoxazol-4-yl)-2-oxo-1,2-dihydroquinoline-5-sulfonamide]
0.658	0.936	Cc1noc(C)c1-c1cc(S(=O)(=O)NC2CCCC2)c2cc(NC(C)(C)CO)c(=O)[nH]c2c1 [Compound 97, N-cyclopentyl-7-(3,5-dimethylisoxazol-4-yl)-3-((1-hydroxy-2-methylpropan-2-yl)amino)-2-oxo-1,2-dihydroquinoline-5-sulfonamide]
0.545	1.03	Cc1noc(C)c1-c1cc(S(=O)(=O)NC2CCCC2)c2cc(NCC(C)(C)O)c(=O)[nH]c2c1 [Compound 98, N-cyclopentyl-7-(3,5-dimethylisoxazol-4-yl)-3-((2-hydroxy-2-methylpropyl)amino)-2-oxo-1,2-dihydroquinoline-5-sulfonamide]
0.632	0.671	Cc1noc(C)c1-c1cc(S(=O)(=O)NC2CCCC2)c2cc(NCC(C)(C)N)c(=O)[nH]c2c1 [Compound 99, 3-((2-amino-2-methylpropyl)amino)-N-cyclopentyl-7-(3,5-dimethylisoxazol-4-yl)-2-oxo-1,2-dihydroquinoline-5-sulfonamide]

Continued, compound first:

SMILES	Kd [1] [µM]	Kd [2] [µM]
Cc1noc(C)c1-c1cc(S(=O)(=O)NC2CCCC2)c2cc(NCCN3CCOCC3)c(=O)[nH]c2c1 [Compound 90, N-cyclopentyl-7-(3,5-dimethylisoxazol-4-yl)-3-((2-morpholinoethyl)amino)-2-oxo-1,2-dihydroquinoline-5-sulfonamide]	0.56	0.652
Cc1noc(C)c1-c1cc(S(=O)(=O)NC2CCCC2)c2cc(NC(CO)CO)c(=O)[nH]c2c1 [Compound 92, N-cyclopentyl-3-((1,3-dihydroxypropan-2-yl)amino)-7-(3,5-dimethylisoxazol-4-yl)-2-oxo-1,2-dihydroquinoline-5-sulfonamide]	0.493	0.897
Cc1noc(C)c1-c1cc(S(=O)(=O)NC2CCCC2)c2cc(NCC(O)CO)c(=O)[nH]c2c1 (stereo not shown) [Compound 93, N-cyclopentyl-3-((2,3-dihydroxypropyl)amino)-7-(3,5-dimethylisoxazol-4-yl)-2-oxo-1,2-dihydroquinoline-5-sulfonamide]	0.417	0.951
Cc1noc(C)c1-c1cc(S(=O)(=O)NC2CCCC2)c2cc(NC3COC3)c(=O)[nH]c2c1 [Compound 96, N-cyclopentyl-7-(3,5-dimethylisoxazol-4-yl)-3-(oxetan-3-ylamino)-2-oxo-1,2-dihydroquinoline-5-sulfonamide]	0.433	0.467
Cc1noc(C)c1-c1cc(S(=O)(=O)N[C@H](C)C(F)(F)F)c2cccnc2c1 [Compound 100, (R)-7-(3,5-dimethylisoxazol-4-trifluoropropan-2-yl)quinoline-5-sulfonamide]	11.4	8.95
